# Assay results as given in patent publication US12129237B2, “Substituted diaminocarboxamide and diaminocarbonitrile pyrimidines, compositions thereof, and methods of treatment therewith” (SIGNAL PHARMACEUTICALS, LLC, priority 2011, dated 2024).
# pIC50: −log10 of the molar value.
# Target: T1, JNK1 (Homo sapiens, UniProt P45983)
# T1 construct: purchased Carna Biosciences
# Assay: JNK1 biochemical assays (one or more of: time resolved fluorescence, Z'-LYTE Cascade, radioactive)
# Details: Table 2; JNK1 IC50 activity level; read-out: Act. Level
# T1 sequence (P45983 whole entry): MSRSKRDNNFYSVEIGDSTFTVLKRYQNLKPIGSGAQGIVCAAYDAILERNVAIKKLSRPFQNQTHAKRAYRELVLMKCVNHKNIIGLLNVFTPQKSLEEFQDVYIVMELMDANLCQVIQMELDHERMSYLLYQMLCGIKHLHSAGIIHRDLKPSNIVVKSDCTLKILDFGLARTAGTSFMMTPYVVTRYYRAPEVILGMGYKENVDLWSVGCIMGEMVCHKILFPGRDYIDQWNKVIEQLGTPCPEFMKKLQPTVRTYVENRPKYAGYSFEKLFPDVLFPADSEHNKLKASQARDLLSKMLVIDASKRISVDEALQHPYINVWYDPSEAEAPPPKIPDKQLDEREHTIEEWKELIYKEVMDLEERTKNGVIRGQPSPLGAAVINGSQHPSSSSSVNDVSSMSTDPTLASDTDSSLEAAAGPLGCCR
row,pIC50,Structure (SMILES)
1,> 6.70,"C[C@]1(O)CCC[C@@H](Nc2nc(N[C@@H]3CCc4ncccc4C3)ncc2C(N)=O)C1 [Example B-101, 4-((1R,3S)-3-hydroxy-3-methylcyclohexylamino)-2-((R)-5,6,7,8-tetrahydroquinolin-6-ylamino)pyrimidine-5-carboxamide]"
2,> 6.70,"COc1ccc(Nc2ncc(C(N)=O)c(Nc3ccccc3)n2)c(OC)c1 [Example B-20, 2-(2,4-dimethoxyphenylamino)-4-(phenylamino)pyrimidine-5-carboxamide]"

# Same assay, conditions: Table 3; JNK1 IC50 activity level; read-out: Act. Level
row,pIC50,Structure (SMILES)
1,6.00 to 6.10,"CO[C@H]1CC[C@H](Nc2ncc(C#N)c(N[C@H]3CC[C@H](O)CC3)n2)CC1 [Example C-15, 4-((1r,4r)-4-hydroxycyclohexylamino)-2-((1r,4r)-4-methoxycyclohexylamino) pyrimidine-5-carbonitrile]"
2,6.00 to 6.10,"CCO[C@H]1CC[C@H](Nc2ncc(C#N)c(N[C@H]3CC[C@H](O)CC3)n2)CC1 [Example C-25, 2-((1r,4r)-4-ethoxycyclohexylamino)-4-((1r,4r)-4-hydroxycyclohexylamino) pyrimidine-5-carbonitrile]"

# Same assay, conditions: one or more of the JNK1 biochemical assays; read-out: Act. Level (JNK1 IC50 activity level)
row,pIC50,Structure (SMILES)
1,> 6.70,"C[C@@H]1CC[C@@H](Nc2nc(NCC3CC3)ncc2C(N)=O)C[C@H]1O [Example 472, 2-(cyclopropylmethylamino)-4-((1R,3R,4R)-3-hydroxy-4-methylcyclohexylamino)pyrimidine-5-carboxamide]"
2,> 6.70,"CCO[C@H]1CC[C@H](Nc2ncc(C(N)=O)c(N[C@@H](CC)C3CC3)n2)CC1 [Example 373, 4-((S)-1-cyclopropylpropylamino)-2-((1r,4S)-4-ethoxycyclohexylamino)pyrimidine-5-carboxamide]"
3,> 6.70,"CC12CC(Nc3nc(N[C@H]4CC[C@H](O)CC4)ncc3C(N)=O)(C1)C2 [Example 393, 2-((1r,4r)-4-hydroxycyclohexylamino)-4-(3-methylbicyclo[1.1.1]pentan-1-ylamino)pyrimidine-5-carboxamide]"
4,> 6.70,"C[C@@H]1CC[C@@H](Nc2nc(N[C@H]3CC[C@H](OC4CC4)CC3)ncc2C(N)=O)C[C@H]1O [Example 492, 2-((1r,4R)-4-cyclopropoxycyclohexylamino)-4-((1R,3R,4R)-3-hydroxy-4-methylcyclohexylamino)pyrimidine-5-carboxamide]"
5,> 6.70,"CCO[C@H]1CC[C@H](Nc2ncc(C(N)=O)c(NC3(C)CCCCC3)n2)CC1 [Example 359, 2-((1r,4r)-4-ethoxycyclohexylamino)-4-(1-methylcyclohexylamino)pyrimidine-5-carboxamide]"

# Same assay, conditions: tested in one or more of the JNK1 biochemical assays; read-out: Act. Level (JNK1 biochemical assay IC50 activity level)
row,pIC50,Structure (SMILES)
1,6.10 to 6.70,"CCO[C@@H]1CC[C@@H](Nc2ncc(C(N)=O)c(N[C@H]3CCC[C@@H]3O)n2)C1 [Example A-76, 2-((1R,3R)-3-ethoxycyclopentylamino)-4-((1S,2S)-2-hydroxycyclopentylamino)pyrimidine-5-carboxamide]"
2,6.10 to 6.70,"COC[C@H]1CC[C@H](Nc2ncc(C(N)=O)c(N[C@H]3CCN(C(C)=O)C3)n2)CC1 [Example A-85, 4-((S)-1-acetylpyrrolidin-3-ylamino)-2-((1r,4S)-4-(methoxymethyl)cyclohexylamino)pyrimidine-5-carboxamide]"
3,> 6.70,"CC(C)Nc1nc(N[C@H]2CC[C@H](CO)CC2)ncc1C(N)=O [Example A-12, 2-((1r,4r)-4-(hydroxymethyl)cyclohexylamino)-4-(isopropylamino)pyrimidine-5-carboxamide]"
4,> 6.70,"C[C@]1(O)CC[C@H](Nc2ncc(C(N)=O)c(N[C@@H]3CCC[C@H](O)C3)n2)CC1 [Example A-22, 2-((1r,4R)-4-hydroxy-4-methylcyclohexylamino)-4-((1R,3S)-3-hydroxycyclohexylamino)pyrimidine-5-carboxamide]"
5,> 6.70,"NC(=O)c1cnc(N[C@H]2CC[C@H](O)CC2)nc1N[C@@H]1CCCC[C@H](O)C1 [Example A-171, 4-((1R,3S)-3-hydroxycycloheptylamino)-2-((1r,4R)-4-hydroxycyclohexylamino)pyrimidine-5-carboxamide]"
